This passage reports Ki results from publication PMC4066452 (Archives of biochemistry and biophysics, 2014).

This assay concerns the target MtACS (Mycobacterium tuberculosis acetyl-CoA synthetase) (Mycobacterium tuberculosis, UniProt P9WQD1). The assay is described as follows: biochemical.

Chain of MtACS (Mycobacterium tuberculosis acetyl-CoA synthetase) (P9WQD1 2-651): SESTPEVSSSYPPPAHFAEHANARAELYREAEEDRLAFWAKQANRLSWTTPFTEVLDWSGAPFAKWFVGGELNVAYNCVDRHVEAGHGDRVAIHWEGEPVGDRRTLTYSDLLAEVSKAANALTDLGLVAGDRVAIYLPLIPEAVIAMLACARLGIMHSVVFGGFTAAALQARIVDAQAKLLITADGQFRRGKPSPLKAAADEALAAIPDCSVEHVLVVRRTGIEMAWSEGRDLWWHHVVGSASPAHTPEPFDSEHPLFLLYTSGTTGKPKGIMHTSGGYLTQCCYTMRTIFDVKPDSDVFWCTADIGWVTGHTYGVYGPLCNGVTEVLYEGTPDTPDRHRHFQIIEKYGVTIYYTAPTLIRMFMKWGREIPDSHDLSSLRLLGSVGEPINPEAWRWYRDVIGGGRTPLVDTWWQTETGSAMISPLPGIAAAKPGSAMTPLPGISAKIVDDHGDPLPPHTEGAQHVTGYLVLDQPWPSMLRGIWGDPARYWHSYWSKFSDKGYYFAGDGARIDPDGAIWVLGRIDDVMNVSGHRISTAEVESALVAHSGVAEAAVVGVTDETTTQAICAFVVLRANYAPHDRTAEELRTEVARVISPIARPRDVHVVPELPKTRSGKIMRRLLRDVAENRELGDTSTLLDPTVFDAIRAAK

For orientation: Ki means a measure of affinity in units of concentration, obtained from inhibition or displacement. A low value points to tighter binding. `Nc1ncnc2c1ncn2[C@@H]1O[C@H](COP(=O)(O)CP(=O)(O)OP(=O)(O)O)[C@@H](O)[C@H]1O` [AMPCPP]: affinity was put at a Ki of 5 ± 0.8 mM.
